Assay results taken from US20230227917A1, “PREDICTING RESPONSE TO PD-1 AXIS INHIBITORS” (Hoffmann-La Roche Inc., priority 2020, published 2023).

Key:
Type in all cases: in vivo, human
[1] = tested on: patients with locally advanced or metastatic Non-Small Cell Lung Cancer; test: Survival by stem cell score, Phase III trial OAK (NCT02008227), Atezolizumab vs Docetaxel; conditions: for HR overall survival, score low vs high: within treatment
Excerpt: We hypothesized that patients with a low abundance of stem cell maintenance-related cancer cells may respond to PD-L1 blockade leading to beneficial effect in patients who received the treatment. We analyzed 739 patients with non-small cell lung cancer who received Atezolizumab (MPDL3280A, n=358) and Docetaxel (n=381) in a Phase III clinical trial (NCT02008227, OAK) (https://clinicaltrials.gov/ct2/show/NCT02008227). This study was sponsored by Genentech Inc., a member of the Roche Group, which provided the study drug.
The protocol and its amendments were approved by the relevant institutional review boards or ethics committees, and all participants provided written informed consent. This study was conducted in accordance with the Declaration of Helsinki and International Conference on Harmonization Guidelines for Good Clinical Practice. Tumor specimens at baseline were archived and taken for gene expression profiling performed by RNA Sequencing (RNA-Seq). In total, 144 human stem cell related genes derived from Gene Ontology were selected and further processed resulting in a selected a list of 4 genes consisting of ASPM, CNOT3, LRPS, and PBX1, which are associated with abundance of stem cell maintenance-related cancer cells. The log2 CPM expression values of each selected gene across the whole cohort were divided at medium expression level for the higher expression ones (+) and lower/no expression ones (−). Using in-house R scripts, the two defined subgroups were plotted against the Kaplan-Meier survival curves.
(§1) As several genes linked to stem cell maintenance-related cancer cells were associated with the survival advantages, we investigated the impact of multiple genes involved in stem cell maintenance-related cancer cells by defining a cumulative cancer stem cell gene score reflecting the cumulative expression of these marker genes. Each gene's expression is first standardized by a z-score:
where μ and μ are estimated in the entire cohort or in the selected subgroups. After the standardization step, these standardized z-score values are averaged across genes within each patient. The OAK cohort was corrected for the sex of patient, age, histolog as well as PD-L1 status. […] In addition, we also identified an advantage in progression-free survival.

[2] = tested on: patients with locally advanced or metastatic Urothelial Bladder Cancer; test: Survival by stem cell score, Phase III trial IMvigor211 (NCT02302807), Atezolizumab vs standard of care
Excerpt: (§2) We hypothesized that patients with a low abundance of stem cell maintenance-related cancer cells may respond to PD-L1 blockade leading to beneficial effect in patients who received the treatment. We analyzed 750 patients with locally advanced or metastatic urothelial bladder cancer who received Atezolizumab (n=369), Paclitaxel (n=123), Vinflunine (n=194) or Docetaxel (n=41) in a Phase III clinical trial (NCT02302807, IMvigor 211) (https://clinicaltrials.gov/ct2/show/NCT02302807). This study was sponsored by Genentech Inc., a member of the Roche Group, which provided the study drug. The protocol and its amendments were approved by the relevant institutional review boards or ethics committees, and all participants provided written informed consent. This study was conducted in accordance with the Declaration of Helsinki and International Conference on Harmonization Guidelines for Good Clinical Practice.
(§3) Tumor specimens at baseline were archived and taken for gene expression profiling performed by RNA Sequencing (RNA-Seq). In total, 144 human stem cell related genes derived from Gene Ontology were selected and further processed resulting in a selected a list of 4 genes consisting of ASPM, CNOT3, LRPS, and PBX1, which are associated with abundance of stem cell maintenance-related cancer cells. The log2 CPM expression values of each selected gene across the whole cohort were divided at medium expression level for the higher expression ones (+) and lower/no expression ones (−). Using in-house R scripts, the two defined subgroups were plotted against the Kaplan-Meier survival curves. […] Table 3 summarizes the median survival as well as HR per single gene used for the stem cell maintenance-related cancer cells signature.
as §1
where μ and μ are estimated in the entire cohort or in the selected subgroups. After the standardization step, these standardized z-score values are averaged across genes within each patient. The IMvigor211 cohort was corrected for the sex of patient, age as well as smoking status. […] In addition, we also identified an adavantage in progression-free survival.

[3] = tested on: patients with locally advanced or metastatic Non-Small Cell Lung Cancer; test: Survival by stem cell score, Phase II trial BIRCH (NCT02031458), Atezolizumab
Excerpt: as §2, with “597” for “750”, “non-small cell lung” for “locally advanced or metastatic urothelial bladder”, “Atezolizumab” for “Atezolizumab (n=369), Paclitaxel (n=123), Vinflunine (n=194) or Docetaxel (n=41)”, “II” for “III”, “(NCT02031458, BIRCH) (https://clinicaltrials.gov/ct2/show/NCT02031458).” for “(NCT02302807, IMvigor 211) (https://clinicaltrials.gov/ct2/show/NCT02302807).”
as §3, with “Sequencing (RNA-Seq).).” for “Sequencing (RNA-Seq).”, “Table 2” for “Table 3”
as §1
where μ and μ are estimated in the entire cohort or in the selected subgroups. After the standardization step, these standardized z-score values are averaged across genes within each patient. The BIRCH cohort was corrected for the sex of patient, age as well as smoking status. […] In addition, we also identified an advantage in progression-free survival.

[4] = cumulative cancer stem cell score (ASPM, CNOT3, LRP5, PBX1) low
[5] = cumulative cancer stem cell score high
[6] = cumulative cancer stem cell score
[7] = gene ASPM, Stem cell score high
[8] = gene CNOT3, Stem cell score high
[9] = gene CNOT3, Stem cell score low
[10] = gene LRP5, Stem cell score high
[11] = gene PBX1, Stem cell score high
[12] = cumulative cancer stem cell score low

CC(=O)O[C@@]12CO[C@@H]1C[C@H](O)[C@@]1(C)C(=O)[C@H](O)C3=C(C)[C@@H](OC(=O)[C@H](O)[C@@H](NC(=O)OC(C)(C)C)c4ccccc4)C[C@@](O)([C@@H](OC(=O)c4ccccc4)[C@H]21)C3(C)C [Docetaxel]
median overall survival [1, 4]: 334 days | median overall survival [1, 5]: 282 days | HR overall survival, score low vs high [1, 6]: 0.76 | Median survival [1, 7]: 270 days | Median survival ([1]; gene ASPM, Stem cell score low): 365 days | Median survival [1, 8]: 299 days | Median survival [1, 9]: 339 days | Median survival [1, 10]: 320 days | Median survival ([1]; gene LRP5, Stem cell score low): 312 days | Median survival [1, 11]: 262 days | Median survival ([1]; gene PBX1, Stem cell score low): 356 days

atezolizumab
HR progression-free survival, score low vs high [1, 6]: 0.69 | median overall survival [1, 4]: 492 days | median overall survival [1, 5]: ~257 days | median progression-free survival [1, 5]: ~51 days | median progression-free survival [1, 12]: ~86 days | HR overall survival, score low vs high [1, 6]: 0.67 | HR overall survival, predictive effect for Atezolizumab ([1]; cumulative stem cell score low group, Atezolizumab vs Docetaxel): 0.72 | Median survival [1, 7]: 256 days | Median survival ([1]; gene ASPM, Stem cell score low): 467 days | HR (Atezo vs SoC) ([1]; gene ASPM, Stem cell score low, Atezolizumab vs Docetaxel): HR: 0.84 | HR (low vs high) ([1]; gene ASPM, score low vs high within treatment): HR: 0.65 | Median survival [1, 8]: 337 days | Median survival [1, 9]: 433 days | HR (Atezo vs SoC) ([1]; gene CNOT3, Stem cell score low, Atezolizumab vs Docetaxel): HR: 0.83 | HR (low vs high) ([1]; gene CNOT3, score low vs high within treatment): HR: 0.89 | Median survival [1, 10]: 384 days | Median survival ([1]; gene LRP5, Stem cell score low): 405 days | HR (Atezo vs SoC) ([1]; gene LRP5, Stem cell score low, Atezolizumab vs Docetaxel): HR: 0.83 | HR (low vs high) ([1]; gene LRP5, score low vs high within treatment): HR: 0.97 | Median survival [1, 11]: 329 days | Median survival ([1]; gene PBX1, Stem cell score low): 456 days | HR (Atezo vs SoC) ([1]; gene PBX1, Stem cell score low, Atezolizumab vs Docetaxel): HR: 0.92 | HR (low vs high) ([1]; gene PBX1, score low vs high within treatment): HR: 0.89 | HR overall survival, score low vs high [2, 6]: 0.64 | HR progression-free survival, score low vs high [2, 6]: 0.69 | median overall survival [2, 5]: ~211 days | median progression-free survival [2, 5]: ~63 days | median overall survival [2, 12]: ~357 days | median progression-free survival [2, 12]: ~66 days | HR overall survival, predictive effect for Atezolizumab ([2]; cumulative stem cell score low groups, Atezolizumab vs standard of care): 0.70 | HR (low vs high) ([2]; gene ASPM): HR: 1.05 | Median survival [2, 7]: 271 days | HR (Atezo vs SoC) ([2]; gene ASPM, Stem cell score low): HR: 0.93 | Median survival ([2]; gene ASPM, Stem cell score low): 257 days | HR (low vs high) ([2]; gene CNOT3): HR: 0.85 | Median survival [2, 8]: 242 days | HR (Atezo vs SoC) [2, 9]: HR: 0.83 | Median survival [2, 9]: 297 days | HR (low vs high) ([2]; gene LRP5): HR: 0.76 | Median survival [2, 10]: 241 days | HR (Atezo vs SoC) ([2]; gene LRP5, Stem cell score low): HR: 0.74 | Median survival ([2]; gene LRP5, Stem cell score low): 298 days | HR (low vs high) ([2]; gene PBX1): HR: 0.74 | Median survival [2, 11]: 247 days | HR (Atezo vs SoC) ([2]; gene PBX1, Stem cell score low): HR: 0.67 | Median survival ([2]; gene PBX1, Stem cell score low): 279 days | HR overall survival, score low vs high [3, 6]: 0.77 | HR progression-free survival, score low vs high [3, 6]: 0.74 | median overall survival [3, 5]: ~437 days | median progression-free survival [3, 5]: ~89 days | median overall survival [3, 12]: ~583 days | median progression-free survival [3, 12]: ~127 days | HR (low vs high) ([3]; gene ASPM): HR: 0.78 | Median survival [3, 7]: 457 days | Median survival ([3]; gene ASPM, Stem cell score low): 566 days | HR (low vs high) ([3]; gene CNOT3): HR: 0.88 | Median survival [3, 8]: 482 days | Median survival [3, 9]: 510 days | HR (low vs high) ([3]; gene LRP5): HR: 1.02 | Median survival [3, 10]: 498 days | Median survival ([3]; gene LRP5, Stem cell score low): 471 days | HR (low vs high) ([3]; gene PBX1): HR: 1.02 | Median survival [3, 11]: 510 days | Median survival ([3]; gene PBX1, Stem cell score low): 471 days
